In patent US9133224B2, “Macrocyclic kinase inhibitors” (OSI Pharmaceuticals, LLC, priority 2010, dated 2015):
Where two headings read alike, the source gives them in different places.

Columns and labels:
[1] = 22-membered ring
[2] = target: T1, GST-tagged full-length FAK enzyme (PTK2) (Homo sapiens, UniProt Q05397); assay: Biochemical Omnia Assay (FAK)
T1 construct: GST-tagged full-length FAK enzyme (PTK2, Invitrogen PV4085); GST; purchased Invitrogen PV4085
Procedure, shortened: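 GST-tagged full-length human FAK, added at 50 nM to compound and a peptide (40 μM)/ATP (200 μM) solution, stated before mixing. Omnia peptide phosphorylation followed continuously by fluorescence increase. Duplicate points; IC50 by nonlinear fitting of linear progress-curve slopes.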

FAK = target: T2, FAK (Homo sapiens, UniProt Q05397); assay: Cell-based capture ELISA for inhibition of FAK autophosphorylation [pY397] in U87MG cells
T2 construct: endogenous in cells; host or cells: U87MG glioblastoma cells (ATCC HTB-14)
Procedure, shortened: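 U87MG cells on fibronectin-coated plates treated with compounds for 2 h at 37° C in complete growth medium (0.6% DMSO final). Lysates captured on anti-FAK ELISA plates; pY397 detected with phospho-specific antibody, HRP and chromogen at 450 nm. Variant run with 50% (v/v) mouse or human plasma.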

[3] = from CCC[CH2][Sn]([CH2]CCC)([CH2]CCC)[c]1cn(CCCOP(=O)(CCC)Cc2ccc(Nc3ncc(C(F)(F)F)c(Nc4ccc(Br)nc4C(=O)NC)n3)c(OC)c2)nn1, cc_pd bond
[4] = from CCC[CH2][Sn]([CH2]CCC)([CH2]CCC)[c]1cn(CCCOP(=O)(Cc2ccc(Nc3ncc(C(F)(F)F)c(Nc4ccc(Br)nc4C(=O)NC)n3)c(OC)c2)OCC)nn1, cc_pd bond, 2 steps
[5] = mean IC50, [ATP] = 50uM, read-out: FAK Activity Biochemical OMNIA, [ATP] = 50uM
[6] = 50% (v/v) human plasma, mean IC50, read-out: FAK Activity Mechanistic (U87MG) HP
[7] = no plasma present, mean IC50, read-out: FAK Activity Mechanistic (U87MG) NP
[8] = 50% (v/v) mouse plasma, mean IC50, read-out: FAK Activity Mechanistic (U87MG) MP

T1 sequence (Q05397 whole entry): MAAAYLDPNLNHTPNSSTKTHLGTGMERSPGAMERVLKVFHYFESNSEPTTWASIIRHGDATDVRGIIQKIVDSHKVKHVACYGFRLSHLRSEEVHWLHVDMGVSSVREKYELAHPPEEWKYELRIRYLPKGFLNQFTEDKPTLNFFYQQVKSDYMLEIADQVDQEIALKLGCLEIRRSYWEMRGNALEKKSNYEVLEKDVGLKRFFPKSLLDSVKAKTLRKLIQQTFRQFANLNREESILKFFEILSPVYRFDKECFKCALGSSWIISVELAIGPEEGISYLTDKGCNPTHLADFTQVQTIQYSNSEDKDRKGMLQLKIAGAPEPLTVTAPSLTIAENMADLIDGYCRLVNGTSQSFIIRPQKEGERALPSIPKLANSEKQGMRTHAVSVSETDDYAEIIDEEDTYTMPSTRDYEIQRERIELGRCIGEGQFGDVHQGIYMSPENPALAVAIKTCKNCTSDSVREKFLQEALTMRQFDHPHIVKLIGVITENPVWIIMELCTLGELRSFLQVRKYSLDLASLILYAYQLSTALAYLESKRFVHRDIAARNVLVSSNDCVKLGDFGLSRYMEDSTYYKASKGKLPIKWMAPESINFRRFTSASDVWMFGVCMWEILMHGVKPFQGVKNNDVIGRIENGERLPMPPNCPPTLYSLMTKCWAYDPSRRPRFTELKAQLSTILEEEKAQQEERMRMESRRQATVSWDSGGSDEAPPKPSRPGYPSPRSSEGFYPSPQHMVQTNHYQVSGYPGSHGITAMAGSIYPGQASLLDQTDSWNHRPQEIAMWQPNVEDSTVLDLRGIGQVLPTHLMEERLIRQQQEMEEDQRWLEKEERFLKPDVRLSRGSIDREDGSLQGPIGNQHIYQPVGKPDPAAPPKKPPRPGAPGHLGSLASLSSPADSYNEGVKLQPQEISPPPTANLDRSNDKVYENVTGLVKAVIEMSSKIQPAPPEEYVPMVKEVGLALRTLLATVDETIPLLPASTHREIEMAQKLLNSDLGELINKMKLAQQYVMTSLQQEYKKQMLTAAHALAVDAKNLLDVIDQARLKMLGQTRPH
T2 sequence (Q05397 whole entry): as above

Compound	IC50 [2, 5] [nM]	IC50 (FAK; [6]) [nM]	IC50 (FAK; [7]) [nM]	also measured
CCOP1(=O)Cc2ccc(c(OC)c2)Nc2ncc(C(F)(F)F)c(n2)Nc2ccc(cc2C(=O)N(CC)CC)-c2cnn(c2)CCCO1 (racemic)	–	–	–	ring closure, yield of all isomers (from CCOP(=O)(O)Cc1ccc(Nc2ncc(C(F)(F)F)c(Nc3ccc(-c4cnn(CCCO)c4)cc3C(=O)N(CC)CC)n2)c(OC)c1, ester bond, PyBOP/DIPEA, 1,2-dichloroethane, 1.03 mM, 25.0 °C, 24.0 h): 43%
CCC[P@@]1(=O)Cc2ccc(c(OC)c2)Nc2ncc(C(F)(F)F)c(n2)Nc2ccc(nc2C(=O)NC)-c2cn(nn2)CCCO1 (mixture of isomers)	–	–	–	ring closure, isolated yield [1, 3]: 19%
CCO[P@@]1(=O)Cc2ccc(c(OC)c2)Nc2ncc(C(F)(F)F)c(n2)Nc2ccc(c3c2C(=O)N(C)C3)-c2cnn(c2)CCCO1	–	–	–	ring closure, yield of all isomers (from CCOP(=O)(O)Cc1ccc(Nc2ncc(C(F)(F)F)c(Nc3ccc(-c4cnn(CCCO)c4)c4c3C(=O)N(C)C4)n2)c(OC)c1, ester bond, PyBOP/DIPEA, 1,2-dichloroethane, 1.17 mM, 72.0 h): 14.1%
CCOP1(=O)Cc2ccc(c(OC)c2)Nc2ncc(C(F)(F)F)c(n2)Nc2ccc(nc2C(=O)NC)-c2cn(nn2)CCCO1 (single isomer, unassigned) [Example 64A]	< 400	< 400	< 400	ring closure, yield of all isomers [4]: 24%
CCO[P@]1(=O)Cc2ccc(c(OC)c2)Nc2ncc(C(F)(F)F)c(n2)Nc2ccc(cc2C(=O)N(CC)CC)-c2cnn(c2)CCCO1 (mixture of isomers)	–	–	–	ring closure, isolated yield ([1]; from CCOP(=O)(O)Cc1ccc(Nc2ncc(C(F)(F)F)c(Nc3ccc(-c4cnn(CCCO)c4)cc3C(=O)N(CC)CC)n2)c(OC)c1, ester bond, PyBOP/DIEA, DCE/DMF, 1.03 mM, 25.0 °C): 43%
CCOP1(=O)Cc2ccc(c(OC)c2)Nc2ncc(C(F)(F)F)c(n2)Nc2ccc(nc2C(=O)NC)-c2cc(C(=O)OC)n(c2)CCCO1 (racemic) [Example 38]	–	< 400	< 400	ring closure, yield of all isomers (from CCOP(=O)(O)Cc1ccc(Nc2ncc(C(F)(F)F)c(Nc3ccc(-c4cc(C(=O)OC)n(CCCO)c4)nc3C(=O)NC)n2)c(OC)c1, ester bond, PyBOP/DIPEA, 1,2-dichloroethane, 1.53 mM, 25.0 °C, 24.0 h): 58%; IC50 [2]: < 400 nM; IC50 (FAK; [8]): 400 to 4000 nM
CCC[P@]1(=O)Cc2ccc(c(OC)c2)Nc2ncc(C(F)(F)F)c(n2)Nc2ccc(nc2C(=O)NC)-c2cnn(c2)CCCO1 (mixture of isomers)	–	–	–	ring closure, isolated yield ([1]; from CCCP(=O)(O)Cc1ccc(Nc2ncc(C(F)(F)F)c(Nc3ccc(-c4cnn(CCCO)c4)nc3C(=O)NC)n2)c(OC)c1, ester bond, DCC, 2 steps): 55%
CCOP1(=O)Cc2ccc(c(OC)c2)Nc2ncc(C(F)(F)F)c(n2)Nc2ccc(nc2C(=O)NC)-c2cnn(c2)CC2(COC2)CO1 (racemic)	–	–	–	ring closure, yield of all isomers (from CCOP(=O)(Cc1ccc(Nc2ncc(C(F)(F)F)c(Nc3ccc(Br)nc3C(=O)NC)n2)c(OC)c1)OCC1(Cn2cc(B3OC(C)(C)C(C)(C)O3)cn2)COC1, cc_pd bond, Pd(dppf)Cl2·CH2Cl2, K2CO3, 1,4-dioxane, 13.5 mM, 100.0 °C, 0.5 h): 43%
CCO[P@]1(=O)Cc2ccc(c(OC)c2)Nc2ncc(C(F)(F)F)c(n2)Nc2ccc(nc2C(=O)NC)-c2cc(C(=O)OC)n(c2)CCCO1 (mixture of isomers)	–	–	–	ring closure, isolated yield ([1]; from CCOP(=O)(O)Cc1ccc(Nc2ncc(C(F)(F)F)c(Nc3ccc(-c4cc(C(=O)OC)n(CCCO)c4)nc3C(=O)NC)n2)c(OC)c1, ester bond, PyBOP/DIEA, DCE, 1.53 mM, 25.0 °C): 58%
CCCP1(=O)Cc2ccc(c(OC)c2)Nc2ncc(C(F)(F)F)c(n2)Nc2ccc(nc2C(=O)NC)-c2cnn(c2)CCCO1 (racemic)	–	–	–	ring closure, yield of all isomers (from CCCP(=O)(O)Cc1ccc(Nc2ncc(C(F)(F)F)c(Nc3ccc(-c4cnn(CCCO)c4)nc3C(=O)NC)n2)c(OC)c1, ester bond, DCC, pyridine, 15.0 mM, 115.0 °C, 5.5 h, 2 steps): 55%
CCOP1(=O)Cc2ccc(c(OC)c2)Nc2ncc(C(F)(F)F)c(n2)Nc2ccc(nc2C(=O)NC)-c2cn(nc2Cl)CCCO1 (racemic) [Example 49]	< 400	< 400	< 400	IC50 (FAK; [8]): 400 to 4000 nM
CCOP1(=O)Cc2ccc(c(OC)c2)Nc2ncc(C(F)(F)F)c(n2)Nc2ccc(nc2C(=O)NC)-c2cnn(c2C)CCCO1 (single isomer, unassigned) [Example 35B]	< 400	< 400	< 400	–
CCOP1(=O)Cc2ccc(c(OC)c2)Nc2ncc(C(F)(F)F)c(n2)Nc2ccc(nc2C(=O)NC)-c2cnn(c2C#N)CCCO1 (racemic) [Example 53]	400 to 4000	–	> 4000	–
CCCP1(=O)Cc2ccc(c(OC)c2)Nc2ncc(C(F)(F)F)c(n2)Nc2ccc(nc2C(=O)NC)-c2cn(nn2)CCCO1 (racemic)	–	–	–	ring closure, yield of all isomers [3]: 19%
CCOP1(=O)Cc2ccc(c(OC)c2)Nc2ncc(C(F)(F)F)c(n2)Nc2ccc(cc2C(=O)NC)-c2cnn(c2)CCCCO1 (racemic) [Example 14]	< 400	< 400	< 400	–
CCO[P@@]1(=O)Cc2ccc(c(OC)c2)Nc2ncc(C(F)(F)F)c(n2)Nc2ccc(nc2C(=O)NC)-c2cn(nn2)CCCO1	–	–	–	ring closure, isolated yield [1, 4]: 24%
CCOP1(=O)Cc2cc(OC)c(cc2Cl)Nc2ncc(C(F)(F)F)c(n2)Nc2ccc(nc2C(=O)NC)-c2cnn(c2)CCCO1 (racemic) [Example 56]	–	> 4000	< 400	IC50 [2]: < 400 nM; IC50 (FAK; [8]): 400 to 4000 nM
CCCP1(=O)Cc2ccc(c(OC)c2)Nc2ncc(C(F)(F)F)c(n2)Nc2ccc(nc2C(=O)NC)-c2cnn(c2)CCCO1 (single isomer, unassigned) [Example 37A]	< 400	400 to 4000	< 400	IC50 (FAK; [8]): 400 to 4000 nM
CCOP1(=O)Cc2ccc(c(Cl)c2)Nc2ncc(C(F)(F)F)c(n2)Nc2ccc(nc2C(=O)NC)-c2cnn(c2)CCCCO1 (racemic) [Example 25]	–	< 400	< 400	IC50 [2]: < 400 nM
CCOP1(=O)Cc2ccc(c(OC)c2)Nc2ncc(C(F)(F)F)c(n2)Nc2ccc(c3c2C(=O)N(C)C3)-c2cnn(c2)CCCO1 (racemic) [Example 1]	–	< 400	< 400	IC50 [2]: < 400 nM
